Assay results published in article PMC10853936, “Heterologous investigation of metabotropic and ionotropic odorant receptors in ab3A neurons of Drosophila melanogaster” (Frontiers in Molecular Biosciences, 2024).

Target: T1, CpomOrco (homomeric) (Cydia pomonella, UniProt H9A5M2)
T1 construct: full-length CDS in pcDNA5/TO, expressed alone in HEK293 cells (HEK293A in methods, HEK293T in results)
T1 sequence (H9A5M2 1-473): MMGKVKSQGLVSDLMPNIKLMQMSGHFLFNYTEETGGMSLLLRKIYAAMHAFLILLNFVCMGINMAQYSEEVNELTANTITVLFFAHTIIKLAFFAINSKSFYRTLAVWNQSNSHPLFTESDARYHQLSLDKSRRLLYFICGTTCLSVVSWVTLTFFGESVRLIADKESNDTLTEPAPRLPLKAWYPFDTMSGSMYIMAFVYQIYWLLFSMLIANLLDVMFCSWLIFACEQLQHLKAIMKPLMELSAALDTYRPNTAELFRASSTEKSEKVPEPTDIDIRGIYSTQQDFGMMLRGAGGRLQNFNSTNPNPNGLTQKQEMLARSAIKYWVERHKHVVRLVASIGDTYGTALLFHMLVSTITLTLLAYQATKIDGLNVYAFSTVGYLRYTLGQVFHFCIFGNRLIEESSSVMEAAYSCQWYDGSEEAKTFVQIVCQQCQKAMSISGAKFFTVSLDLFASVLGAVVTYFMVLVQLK
Experiment: Fluo-4 calcium imaging in HEK293 cells, Hill fit
Format: cell-based
Settings: read-out: [VUAA1]1/2

CCc1ccc(NC(=O)CSc2nnc(-c3cccnc3)n2CC)cc1 [VUAA1, acetamide, N-(4-ethylphenyl)-2-[[4-ethyl-5-(3-pyridinyl)-4H-1,2,4-triazol-3-yl]thio]-]
EC50: 284 ± 39 µM
